From patent US12139520B2 (priority 2020, dated 2024)
Bridge positions count the residues as written; N and C are the ends. Square brackets hold non-standard residues; d marks the D form. Peptide text beside a SMILES is read from it. Hyp = O=C(O)[C@@H]1C[C@@H](O)CN1

Test: Physical stability of peptide analogues (Thioflavin T fibrillation)
Type: physicochemical
Conditions: maximum ThT signal normalized between hAMY maximum and buffer background; 40° C., shaking, four days; pH 7 per table title
Description: General Protocols for Determination of Physical Stability of Peptide Analogues
Peptides were dissolved in buffers (50 mM sodium acetate at pH 4 or 50 mM sodium phosphate at pH 7) and incubated for one hour. The samples were then divided into two replicates of 80 μl in a black 384 well plate (μ-clear, Greiner Bio-One) and mixed with Thioflavin T (ThT) to a final concentration of 4 μM. The plate was sealed and placed in a plate reader (CLARIOstar, BMG) where the temperature was set at 40° C. during the course of the experiment. The samples were further stressed by shaking the plate at 700 rpm (linear) for five minutes before every measurement. The fluorescence was measured every 10 min for four days by exciting the ThT at 450 nm and measuring the emission at 480 nm. For each peptide, the ThT signal over time was smoothened using Local Polynomial Regression fitting (LOESS) as implemented in the statistical programming environment R. For the smoothened data, the maximum ThT signal was normalized in percent between the maximum ThT signal for hAMY and the buffer background.

SMILES	Max ThT signal (%)
CC[C@H](C)[C@H](NC(=O)[C@H](CCC(N)=O)NC(=O)[C@H](Cc1c[nH]cn1)NC(=O)[C@H](C)NC(=O)[C@H](CC(C)C)NC(=O)[C@H](CCCNC(=N)N)NC(=O)[C@H](CCC(N)=O)NC(=O)[C@@H](NC(=O)[C@@H](NC(=O)[C@@H]1CSSC[C@H](NC(=O)CN)C(=O)N[C@@H](CCCNC(=N)N)C(=O)N[C@@H]([C@@H](C)O)C(=O)NCC(=O)N[C@@H]([C@@H](C)O)C(=O)N1)[C@@H](C)O)C(C)C)C(=O)N[C@@H](Cc1ccc(O)cc1)C(=O)N[C@@H](CCC(N)=O)C(=O)N[C@@H](Cc1ccccc1)C(=O)N[C@H](C(=O)N[C@@H](CC(=O)O)C(=O)N[C@@H](CCCCN)C(=O)N[C@@H](CC(=O)O)C(=O)N[C@@H](CCCCN)C(=O)N[C@@H](CC(=O)O)C(=O)N[C@@H](CC(N)=O)C(=O)N[C@H](C(=O)N[C@@H](C)C(=O)N1CCC[C@H]1C(=O)N[C@@H](CCCNC(=N)N)C(=O)N[C@H](C(=O)N[C@@H](CCCCN)C(=O)N[C@H](C(=O)N[C@@H](CO)C(=O)N1CCC[C@H]1C(=O)N[C@@H](CC(N)=O)C(=O)NCC(=O)N1C[C@H](O)C[C@H]1C(N)=O)[C@@H](C)CC)[C@@H](C)O)C(C)C)[C@@H](C)O [compound 197] (H-GCRTGTCTVQRLAHQIYQFTDKDKDNVAPRTKISPNG[Hyp]-NH2; disulfide 2-7; N-terminus assumed)	5.600
CC[C@H](C)[C@@H]1NC(=O)[C@H](CCCNC(=N)N)NC(=O)[C@@H](NC(=O)CN)CSSC[C@@H](C(=O)N[C@H](C(=O)N[C@H](C(=O)N[C@@H](CCC(N)=O)C(=O)N[C@@H](CCCNC(=N)N)C(=O)N[C@@H](CC(C)C)C(=O)N[C@@H](C)C(=O)N[C@@H](Cc2c[nH]cn2)C(=O)N[C@@H](CCC(N)=O)C(=O)N[C@H](C(=O)N[C@@H](Cc2ccc(O)cc2)C(=O)N[C@@H](CCC(N)=O)C(=O)N[C@@H](Cc2ccccc2)C(=O)N[C@H](C(=O)N[C@@H](CC(N)=O)C(=O)N[C@@H](CCCCN)C(=O)N[C@@H](CC(=O)O)C(=O)N[C@@H](CCCCN)C(=O)N[C@@H](CC(=O)O)C(=O)N[C@@H](CC(N)=O)C(=O)N[C@H](C(=O)N[C@@H](C)C(=O)N2CCC[C@H]2C(=O)N[C@@H](CCCNC(=N)N)C(=O)N[C@@H](CO)C(=O)N[C@@H](CCCCN)C(=O)N[C@H](C(=O)N[C@@H](CO)C(=O)N2CCC[C@H]2C(=O)N[C@@H](CCC(N)=O)C(=O)N[C@H](C(=O)N2C[C@H](O)C[C@H]2C(N)=O)[C@@H](C)O)[C@@H](C)CC)C(C)C)[C@@H](C)O)[C@@H](C)CC)C(C)C)[C@@H](C)O)NC(=O)[C@H]([C@@H](C)O)NC(=O)CNC1=O [compound 198] (H-GCRIGTCTVQRLAHQIYQFTNKDKDNVAPRSKISPQT[Hyp]-NH2; disulfide 2-7; N-terminus assumed)	4.200
CC[C@H](C)[C@H](NC(=O)[C@H](CCC(N)=O)NC(=O)[C@H](Cc1c[nH]cn1)NC(=O)[C@H](C)NC(=O)[C@H](CC(C)C)NC(=O)[C@H](CCCNC(=N)N)NC(=O)[C@H](CCC(N)=O)NC(=O)[C@@H](NC(=O)[C@@H](NC(=O)[C@@H]1CSSC[C@H](NC(=O)CN)C(=O)N[C@@H](CCCNC(=N)N)C(=O)N[C@@H]([C@@H](C)O)C(=O)NCC(=O)N[C@@H]([C@@H](C)O)C(=O)N1)[C@@H](C)O)C(C)C)C(=O)N[C@@H](Cc1ccc(O)cc1)C(=O)N[C@@H](CCC(N)=O)C(=O)N[C@@H](Cc1ccccc1)C(=O)N[C@H](C(=O)N[C@@H](CC(=O)O)C(=O)N[C@@H](CCCCN)C(=O)N[C@@H](CC(=O)O)C(=O)N[C@@H](CCCCN)C(=O)N[C@@H](CC(=O)O)C(=O)N[C@@H](CC(N)=O)C(=O)N[C@H](C(=O)N[C@@H](C)C(=O)N1CCC[C@H]1C(=O)N[C@@H](CCCNC(=N)N)C(=O)N[C@H](C(=O)N[C@@H](CC(N)=O)C(=O)N[C@H](C(=O)N[C@@H](CO)C(=O)N1CCC[C@H]1C(=O)N[C@@H](CCC(N)=O)C(=O)NCC(=O)N[C@@H](Cc1ccc(O)cc1)C(N)=O)[C@@H](C)CC)[C@@H](C)O)C(C)C)[C@@H](C)O [compound 199] (H-GCRTGTCTVQRLAHQIYQFTDKDKDNVAPRTNISPQGY-NH2; disulfide 2-7; N-terminus assumed)	8.900
CC[C@H](C)[C@H](NC(=O)[C@H](CCC(N)=O)NC(=O)[C@H](Cc1c[nH]cn1)NC(=O)[C@H](C)NC(=O)[C@H](CC(C)C)NC(=O)[C@H](CCCNC(=N)N)NC(=O)[C@H](CCC(N)=O)NC(=O)[C@@H](NC(=O)[C@@H](NC(=O)[C@@H]1CSSC[C@H](NC(=O)CN)C(=O)N[C@@H](CCCNC(=N)N)C(=O)N[C@@H]([C@@H](C)O)C(=O)NCC(=O)N[C@@H]([C@@H](C)O)C(=O)N1)[C@@H](C)O)C(C)C)C(=O)N[C@@H](Cc1ccc(O)cc1)C(=O)N[C@@H](CCC(N)=O)C(=O)N[C@@H](Cc1ccccc1)C(=O)N[C@H](C(=O)N[C@@H](CC(=O)O)C(=O)N[C@@H](CCCCN)C(=O)N[C@@H](CC(=O)O)C(=O)N[C@@H](CCCCN)C(=O)N[C@@H](CC(=O)O)C(=O)N[C@@H](CC(N)=O)C(=O)N[C@H](C(=O)N[C@@H](C)C(=O)N1CCC[C@H]1C(=O)N[C@@H](CCCNC(=N)N)C(=O)N[C@@H](CO)C(=O)N[C@@H](CCCCN)C(=O)N[C@H](C(=O)N[C@@H](CO)C(=O)N1CCC[C@H]1C(=O)N[C@@H](CC(N)=O)C(=O)NCC(=O)N1C[C@H](O)C[C@H]1C(N)=O)C(C)C)C(C)C)[C@@H](C)O [compound 204] (H-GCRTGTCTVQRLAHQIYQFTDKDKDNVAPRSKVSPNG[Hyp]-NH2; disulfide 2-7; N-terminus assumed)	2.200
CC[C@H](C)[C@H](NC(=O)[C@H](CCC(N)=O)NC(=O)[C@H](Cc1c[nH]cn1)NC(=O)[C@H](C)NC(=O)[C@H](CC(C)C)NC(=O)[C@H](CCCNC(=N)N)NC(=O)[C@H](CCC(N)=O)NC(=O)[C@@H](NC(=O)[C@@H](NC(=O)[C@@H]1CSSC[C@H](NC(=O)CN)C(=O)N[C@@H](CCCNC(=N)N)C(=O)N[C@@H]([C@@H](C)O)C(=O)NCC(=O)N[C@@H]([C@@H](C)O)C(=O)N1)[C@@H](C)O)C(C)C)C(=O)N[C@@H](Cc1ccc(O)cc1)C(=O)N[C@@H](CCC(N)=O)C(=O)N[C@@H](Cc1ccccc1)C(=O)N[C@H](C(=O)N[C@@H](CC(=O)O)C(=O)N[C@@H](CCCCN)C(=O)N[C@@H](Cc1ccccc1)C(=O)N[C@@H](CCCCN)C(=O)N[C@@H](CC(=O)O)C(=O)N[C@@H](CC(N)=O)C(=O)N[C@H](C(=O)N[C@@H](C)C(=O)N1CCC[C@H]1C(=O)N[C@@H](CCCNC(=N)N)C(=O)N[C@@H](CO)C(=O)N[C@@H](CCCCN)C(=O)N[C@H](C(=O)N[C@@H](CO)C(=O)N1CCC[C@H]1C(=O)N[C@@H](CCC(N)=O)C(=O)N[C@@H](Cc1ccccc1)C(=O)N1C[C@H](O)C[C@H]1C(N)=O)[C@@H](C)CC)C(C)C)[C@@H](C)O [compound 211] (H-GCRTGTCTVQRLAHQIYQFTDKFKDNVAPRSKISPQF[Hyp]-NH2; disulfide 2-7; N-terminus assumed)	5.200
CC[C@H](C)[C@H](NC(=O)[C@H](CCC(N)=O)NC(=O)[C@H](Cc1c[nH]cn1)NC(=O)[C@H](C)NC(=O)[C@H](CC(C)C)NC(=O)[C@H](CCCNC(=N)N)NC(=O)[C@H](CCC(N)=O)NC(=O)[C@@H](NC(=O)[C@@H](NC(=O)[C@@H]1CSSC[C@H](NC(=O)CN)C(=O)N[C@@H](CCCNC(=N)N)C(=O)N[C@@H]([C@@H](C)O)C(=O)NCC(=O)N[C@@H]([C@@H](C)O)C(=O)N1)[C@@H](C)O)C(C)C)C(=O)N[C@@H](Cc1c[nH]cn1)C(=O)N[C@@H](CCC(N)=O)C(=O)N[C@@H](Cc1ccccc1)C(=O)N[C@H](C(=O)N[C@@H](CC(N)=O)C(=O)N[C@@H](CCCCN)C(=O)N[C@@H](CC(=O)O)C(=O)N[C@@H](CCCCN)C(=O)N[C@@H](CC(=O)O)C(=O)N[C@@H](CC(N)=O)C(=O)N[C@H](C(=O)N[C@@H](C)C(=O)N1CCC[C@H]1C(=O)N[C@@H](CCCNC(=N)N)C(=O)N[C@@H](CO)C(=O)N[C@@H](CCCCN)C(=O)N[C@H](C(=O)N[C@@H](CO)C(=O)N1CCC[C@H]1C(=O)N[C@@H](CCC(N)=O)C(=O)N[C@H](C(=O)N1C[C@H](O)C[C@H]1C(N)=O)[C@@H](C)O)[C@@H](C)CC)C(C)C)[C@@H](C)O [compound 227] (H-GCRTGTCTVQRLAHQIHQFTNKDKDNVAPRSKISPQT[Hyp]-NH2; disulfide 2-7; N-terminus assumed)	8.500
CC[C@H](C)[C@H](NC(=O)[C@H](CCC(N)=O)NC(=O)[C@H](Cc1c[nH]cn1)NC(=O)[C@H](C)NC(=O)[C@H](CC(C)C)NC(=O)[C@H](CCCNC(=N)N)NC(=O)[C@H](CCC(N)=O)NC(=O)[C@@H](NC(=O)[C@@H](NC(=O)[C@@H]1CSSC[C@H](NC(=O)CN)C(=O)N[C@@H](CCCNC(=N)N)C(=O)N[C@@H]([C@@H](C)O)C(=O)NCC(=O)N[C@@H]([C@@H](C)O)C(=O)N1)[C@@H](C)O)C(C)C)C(=O)N[C@@H](Cc1ccc(O)cc1)C(=O)N[C@@H](CCC(N)=O)C(=O)N[C@@H](Cc1ccccc1)C(=O)N[C@H](C(=O)N[C@@H](CC(=O)O)C(=O)N[C@@H](CCCCN)C(=O)N[C@@H](Cc1ccccc1)C(=O)N[C@@H](CCCCN)C(=O)N[C@@H](CC(=O)O)C(=O)N[C@@H](CC(N)=O)C(=O)N[C@H](C(=O)N[C@@H](C)C(=O)N1CCC[C@H]1C(=O)N[C@@H](CCCNC(=N)N)C(=O)N[C@@H](CO)C(=O)N[C@@H](CCCCN)C(=O)N[C@H](C(=O)N[C@@H](CO)C(=O)N1CCC[C@H]1C(=O)N[C@@H](CCC(N)=O)C(=O)N[C@H](C(=O)N1CCC[C@H]1C(N)=O)[C@@H](C)O)[C@@H](C)CC)C(C)C)[C@@H](C)O [compound 235] (H-GCRTGTCTVQRLAHQIYQFTDKFKDNVAPRSKISPQTP-NH2; disulfide 2-7; N-terminus assumed)	0.800
